Results as given in patent publication US20230293517A1, “ANTAGONIST COMPOUNDS” (AdoRx Therapeutics Limited, priority 2020, published 2023).

Key:
[1] = target: human Adenosine A1 receptor (Homo sapiens (Human), UniProt P30542); assay: Adenosine receptor TR-FRET binding assay (A1); details: inhibition of binding of 100 nM CA200645, CHO cell membranes
How it was run: (§1)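 CHO cell membranes carrying terbium-tagged human A1, A2a, A2b or A3 receptors were incubated 2 h at room temperature with compound and CA200645 tracer (A2b 30 nM; others 100 nM). Specific binding from time-resolved FRET ratios, minus 10 μM XAC background; IC50 converted to Ki (Cheng–Prusoff).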

human PBMCs = assay: CD3/CD28 stimulated IL-2 release NECA reversal assay in human PBMCs; format: cell-based; details: PBMC, 1 uM NECA, 24 hours, IL-2 in culture supernatant
How it was run: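 PBMCs from citrated healthy-donor blood plated at 50,000 cells/well on 1 ug/ml CD3 antibody with 1 ug/ml CD28 antibody, 1 uM NECA and 0.003-10 μM antagonist (final), 24 h at 37° C. Supernatant IL-2 measured by MSD immunoassay; % inhibition set against no-NECA control wells as 100%.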

[2] = target: human Adenosine A3 receptor (Homo sapiens (Human), UniProt P0DMS8); assay: Adenosine receptor TR-FRET binding assay (A3); details: inhibition of binding of 100 nM CA200645, CHO cell membranes
How it was run: as §1

[3] = tested on: CD8+T cells in human whole blood; assay: Measurement of pCREB in CD8+T cells in human whole blood; format: cell-based; details: 3 μM NECA, rolipram
How it was run: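 Heparinised human whole blood pre-incubated 20 min at 37 °C with serially diluted A2a antagonists plus rolipram, then stimulated 60 min with 3 μM NECA (final). After fixation and red-cell lysis, white cells were permeabilized and stained for phospho-CREB and CD8; pCREB in CD8+ T cells measured by flow cytometry.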

[4] = target: human Adenosine A2b receptor (Homo sapiens (Human), UniProt P29275); assay: Adenosine receptor TR-FRET binding assay (A2b); details: TR-FRET, inhibition of binding of 30 nM CA200645, CHO cell membranes
How it was run: as §1

[5] = target: human Adenosine A2a receptor (Homo sapiens (Human), UniProt P29274); assay: Adenosine receptor TR-FRET binding assay (A2a); details: inhibition of binding of 100 nM CA200645, CHO cell membranes
How it was run: as §1

Sequence of human Adenosine A2a receptor (P29274 whole entry): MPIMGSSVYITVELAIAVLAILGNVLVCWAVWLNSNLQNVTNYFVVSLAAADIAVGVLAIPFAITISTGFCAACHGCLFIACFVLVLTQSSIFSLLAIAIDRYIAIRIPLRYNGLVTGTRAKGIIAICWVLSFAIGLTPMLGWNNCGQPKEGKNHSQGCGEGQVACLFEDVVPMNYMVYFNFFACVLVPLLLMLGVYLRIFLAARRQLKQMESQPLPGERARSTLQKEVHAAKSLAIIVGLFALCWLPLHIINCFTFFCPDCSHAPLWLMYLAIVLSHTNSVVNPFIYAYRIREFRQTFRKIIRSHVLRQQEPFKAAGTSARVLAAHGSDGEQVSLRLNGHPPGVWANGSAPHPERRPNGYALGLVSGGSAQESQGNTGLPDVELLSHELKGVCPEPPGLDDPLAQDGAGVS
Sequence of human Adenosine A3 receptor (P0DMS8 whole entry): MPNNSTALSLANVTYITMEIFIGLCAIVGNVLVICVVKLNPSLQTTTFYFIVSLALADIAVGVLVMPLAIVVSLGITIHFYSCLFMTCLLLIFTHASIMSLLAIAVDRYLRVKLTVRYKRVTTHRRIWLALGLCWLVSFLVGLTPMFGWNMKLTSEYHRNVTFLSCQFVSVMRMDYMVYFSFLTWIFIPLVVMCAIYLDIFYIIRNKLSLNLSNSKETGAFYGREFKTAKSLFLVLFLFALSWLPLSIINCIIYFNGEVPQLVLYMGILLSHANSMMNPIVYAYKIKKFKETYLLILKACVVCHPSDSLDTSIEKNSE
Sequence of human Adenosine A1 receptor (P30542 whole entry): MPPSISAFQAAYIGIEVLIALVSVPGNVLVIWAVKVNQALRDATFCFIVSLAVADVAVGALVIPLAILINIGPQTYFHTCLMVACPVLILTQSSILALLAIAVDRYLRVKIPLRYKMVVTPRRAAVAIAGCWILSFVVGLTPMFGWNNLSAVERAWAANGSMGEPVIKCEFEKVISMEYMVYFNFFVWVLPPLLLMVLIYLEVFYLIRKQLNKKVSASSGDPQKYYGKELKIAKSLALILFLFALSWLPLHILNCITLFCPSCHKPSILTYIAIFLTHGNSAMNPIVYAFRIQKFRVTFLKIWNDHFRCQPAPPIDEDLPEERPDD
Sequence of human Adenosine A2b receptor (P29275 whole entry): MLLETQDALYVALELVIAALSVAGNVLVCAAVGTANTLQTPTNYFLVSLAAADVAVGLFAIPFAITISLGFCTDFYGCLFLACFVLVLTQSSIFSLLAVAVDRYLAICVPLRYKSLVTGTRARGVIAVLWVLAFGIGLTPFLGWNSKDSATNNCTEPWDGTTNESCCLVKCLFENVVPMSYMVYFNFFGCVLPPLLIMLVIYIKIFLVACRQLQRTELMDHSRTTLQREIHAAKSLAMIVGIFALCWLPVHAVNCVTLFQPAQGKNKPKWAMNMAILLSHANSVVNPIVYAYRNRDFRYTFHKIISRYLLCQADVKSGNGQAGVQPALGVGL

| SMILES | Ki [1] | IC50 (human PBMCs) | Ki [2] | IC50 [3] | Ki [4] | Ki [5] |
| --- | --- | --- | --- | --- | --- | --- |
| Cc1cc(-c2sc(NC(=O)N3CCC4(CCC(=O)N4C)CC3)nc2-c2cccc(C#N)c2)cc(C)n1 [Example 6.94, N-[4-(3-Cyanophenyl)-5-(2,6-dimethyl-4-pyridyl)thiazol-2-yl]-1-methyl-2-oxo-1,8-diazaspiro[4.5]decane-8-carboxamide] | 407 nM | 10.5 nM | 719 nM | 190 nM | 11.3 nM | 5.63 nM |
| Cc1cc(-c2sc(NC(=O)N3CCC(F)(C#N)CC3)nc2-c2cccc(C#N)c2)cc(C)n1 [Example 4.7, 4-Cyano-N-[4-(3-cyanophenyl)-5-(2,6-dimethyl-4-pyridyl)thiazol-2-yl]-4-fluoro-piperidine-1-carboxamide] | 6 nM | 0.8 nM | 125 nM | 90 nM | 1.3 nM | 0.05 nM |
| Cc1cc(-c2sc(NC(=O)N3CCN[C@H](CO)C3)nc2-c2cccc(C#N)c2)cc(Cl)n1 [Example 5.2, (3S)-N-[5-(2-Chloro-6-methyl-4-pyridyl)-4-(3-cyanophenyl)thiazol-2-yl]-3-(hydroxymethyl)piperazine-1-carboxamide] | 40 nM | 20.2 nM | 70 nM | 1180 nM | 0.9 nM | 0.84 nM |
| Cc1cc(-c2sc(NC(=O)N3CCN4CCOCC4C3)nc2-c2cccc(C#N)c2)cc(C)n1 (stereo not drawn) [Example 4.11, N-[4-(3-Cyanophenyl)-5-(2,6-dimethyl-4-pyridyl)thiazol-2-yl]-3,4,6,7,9,9a-hexahydro-1H-pyrazino[2,1-c][1,4]oxazine-8-carboxamide] | 225 nM | 3.8 nM | 482 nM | 220 nM | 4.7 nM | 1.3 nM |
| Cc1cc(-c2sc(NC(=O)N3CCC4(CCNC4=O)CC3)nc2-c2cccc(C#N)c2)cc(C)n1 [Example 6.24, N-[4-(3-Cyanophenyl)-5-(2,6-dimethyl-4-pyridyl)thiazol-2-yl]-1-oxo-2,8-diazaspiro[4.5]decane-8-carboxamide] | 129 nM | 4.7 nM | 224 nM | 90 nM | 2.5 nM | 0.99 nM |
| Cc1cc(-c2sc(NC(=O)N3CCN4C(=O)CCC4C3)nc2-c2cccc(C#N)c2)cc(C)n1 (stereo not drawn) [Example 6.18, N-[4-(3-Cyanophenyl)-5-(2,6-dimethyl-4-pyridyl)thiazol-2-yl]-6-oxo-1,3,4,7,8,8a-hexahydropyrrolo[1,2-a]pyrazine-2-carboxamide] | 70 nM | 5 nM | 332 nM | 40 nM | 6.1 nM | 0.33 nM |
| Cc1cc(-c2sc(NC(=O)N3CC[S+]([O-])CC3)nc2-c2cccc(C#N)c2)c(F)c(C)n1 [Example 10, N-[4-(3-Cyanophenyl)-5-(3-fluoro-2,6-dimethyl-4-pyridyl)thiazol-2-yl]-1-oxo-1,4-thiazinane-4-carboxamide] | 43 nM | 24.7 nM | 283 nM | 1060 nM | 1.4 nM | 1.19 nM |
| Cc1cc(-c2sc(NC(=O)N3CCC(C)(N)CC3)nc2-c2cccc(C#N)c2)cc(Cl)n1 [Example 5.9, 4-Amino-N-[5-(2-chloro-6-methyl-4-pyridyl)-4-(3-cyanophenyl)thiazol-2-yl]-4-methyl-piperidine-1-carboxamide] | 82 nM | 18.3 nM | 125 nM | 1000 nM | 4.3 nM | 2.32 nM |
| Cc1cc(-c2sc(NC(=O)N3CCC4(CCC(=O)NC4)CC3)nc2-c2cccc(C#N)c2)cc(C)n1 [Example 6.40, N-[4-(3-Cyanophenyl)-5-(2,6-dimethyl-4-pyridyl)thiazol-2-yl]-3-oxo-2,9-diazaspiro[5.5]undecane-9-carboxamide] | 110 nM | 2.2 nM | 330 nM | 80 nM | 4.6 nM | 0.41 nM |
